This passage reports IC50 and concentration results from US20210309666A1, “SMALL MOLECULE MDM2 PROTEIN DEGRADERS” (THE REGENTS OF THE UNIVERSITY OF MICHIGAN, priority 2018, published 2021).

In one data set the test system is RS4;11 cells. Description: Cell growth inhibition, 4-day proliferation assay (WST-8). The class given is cell-based. Particulars: Homo sapiens, 96 h; RS4;11 cells, 4 days, WST-8; read-out: RS4; 11 Cells IC50. On the procedure: The effect of representative Compounds of the Disclosure on cell viability was determined in a 4-day proliferation assay. Cells were maintained in the appropriate culture medium with 10% FBS at 37° C. and an atmosphere of 5% CO2. Also, the effect of a MDM2 inhibitor (Cpd. A; see Compound Example No. 22 of U.S. Pat. No. 8,629,141) and a known MDM2 degrader (Cpd. D, see Cpd. No. 175 of WO 2017/0176957) on cell viability in various cell lines is also included in Table 5. Cpd. […] A and D. The structure of Cpd. A is:
Cells were seeded in 96-well flat bottom (Corning COSTAR, Corning, N.Y., cat #3595) at a density of 2,000-3,000 cells/well in 100 μL of culture medium. Compounds were serially diluted in the appropriate medium, and 100 μL of the diluted compounds were added to the appropriate wells of the cell plate. After the addition of compounds, the cells were incubated at 37° C. in an atmosphere of 5% CO2 for 4 days. Cell viability was determined using the WST (2-(2-methoxy-4-nitrophenyl)-3-(4-nitrophenyl)-5-(2,4-disulfophenyl)-2H-tetrazolium, monosodium salt) Cell Counting-8 Kit (Dojindo Molecular Technologies, Inc., Rockville, Md.) according to the manufacturers' instructions.
WST-8 reagent was added to each well at a final concentration of 10% (v/v), and then the plates were incubated at 37° C. for 1-2 hours for color development. The absorbance was measured at 450 nm using a SPECTRAmax PLUS plate reader (Molecular Devices, Sunnyvale, Calif.). The readings were normalized to the DMSO-treated cells and the half maximal inhibitory concentration (IC50) was calculated by nonlinear regression (four parameters sigmoid fitted with variable slope, least squares fit, and no constraint) analysis using the GraphPad Prism 5 software (GraphPad Software, La Jolla, Calif.).
In general terms: Tetrazolium assays rely on reduction of a dye to a coloured formazan, in cell work by metabolically active cells.

Data set [1] can be described thus: Separate PK experiment, plasma concentrations after oral dose. The class given is in vivo. Particulars: mouse, 50 mg/kg, mice. The text has this:
In a separate PK experiment, the plasma concentrations of Cpd.

Where [2] appears, read: read-out: Plasma concentration, Average / Mean.
The mark [3] stands for this setting: read-out: Plasma concentration, Mouse 1.
[4] abbreviates: read-out: Plasma concentration, Mouse 2.

Read-outs that look alike come from different tables or passages of the source.

For `O=C1CCC(N2Cc3c(C#CC4CCN(C(=O)C56CCC(NC(=O)[C@@H]7NC8(CCCCC8)[C@@]8(C(=O)Nc9cc(Cl)ccc98)[C@H]7c7cccc(F)c7F)(CC5)CC6)CC4)cccc3C2=O)C(=O)N1` (stereo partly drawn) [Cpd. No. 14, (3′R,4′S,5′R)-6″-chloro-4′-(2,3-difluorophenyl)-N-(4-(4-((2-(2,6-dioxopiperidin-3-yl)-1-oxoisoindolin-4-yl)ethynyl)piperidine-1-carbonyl)bicyclo[2.2.2]octan-1-yl)-2″-oxodispiro[cyclohexane-1,2′-pyrrolidine-3′,3″-indoline]-5′-carboxamide], the IC50 with RS4;11 cells came out at 11 nM. Besides, in data set [1] (setting [2]), the concentration at 1 h turned out to be 3300 ng/mL, the concentration at 3 h came out at 7460 ng/mL and the concentration at 6 h came to 8240 ng/mL. In addition, in data set [1] (setting [3]), the concentration at 1 h is 4060 ng/mL, the concentration at 3 h was determined as 6880 ng/mL and the concentration at 6 h stood at 7660 ng/mL. For the same compound, in data set [1] (setting [4]), the concentration at 1 h was found to be 2550 ng/mL, the concentration at 3 h was 8050 ng/mL and the concentration at 6 h was determined as 8810 ng/mL.

As to `CCN1[C@@H](C(=O)Nc2ccc(C(=O)N3CCC(C#Cc4cccc5c4CN(C4CCC(=O)NC4=O)C5=O)CC3)cc2)[C@H](c2cccc(Cl)c2F)[C@]2(C(=O)Nc3cc(Cl)ccc32)C12CCCCC2` (stereo partly drawn) [Cpd. No. 24, (3′R,4′S,5′R)-6″-chloro-4′-(3-chloro-2-fluorophenyl)-N-(4-(4-((2-(2,6-dioxopiperidin-3-yl)-1-oxoisoindolin-4-yl)ethynyl)piperidine-1-carbonyl)phenyl)-1′-ethyl-2″-oxodispiro[cyclohexane-1,2′-pyrrolidine-3′,3″-indoline]-5′-carboxamide], the IC50 with RS4;11 cells is 6.6 nM.

Consider `O=C1CCC(N2Cc3c(C#CCCCNC(=O)[C@H]4CC[C@H](NC(=O)[C@@H]5NC6(CCCCC6)[C@@]6(C(=O)Nc7cc(Cl)ccc76)[C@H]5c5ccccc5F)CC4)cccc3C2=O)C(=O)N1` (stereo partly drawn) [Cpd. No. 25, (3′R,4′S,5′R)-6″-chloro-N-(4-((5-(2-(2,6-dioxopiperidin-3-yl)-1-oxoisoindolin-4-yl)pent-4-yn-1-yl)carbamoyl)cyclohexyl)-4′-(2-fluorophenyl)-2″-oxodispiro[cyclohexane-1,2′-pyrrolidine-3′,3″-indoline]-5′-carboxamide], for which the IC50 in the data set with RS4;11 cells is greater than 100 nM.

With `O=C1CCC(N2Cc3c(C#CCCCNC(=O)[C@H]4CC[C@H](NC(=O)[C@@H]5NC6(CCCCC6)[C@@]6(C(=O)Nc7cc(Cl)ccc76)[C@H]5c5cccc(Cl)c5)CC4)cccc3C2=O)C(=O)N1` (stereo partly drawn) [Cpd. No. 26, (3′R,4′R,5′R)-6″-chloro-4′-(3-chlorophenyl)-N-((1r,4R)-4-((5-(2-(2,6-dioxopiperidin-3-yl)-1-oxoisoindolin-4-yl)pent-4-yn-1-yl)carbamoyl)cyclohexyl)-2″-oxodispiro[cyclohexane-1,2′-pyrrolidine-3′,3″-indoline]-5′-carboxamide], the IC50 in the data set with RS4;11 cells was found to be 0.7 nM.

In the case of `O=C1CCC(N2Cc3c(C#CCCCNC(=O)[C@H]4CC[C@H](NC(=O)[C@@H]5NC6(CCCCC6)[C@@]6(C(=O)Nc7cc(Cl)ccc76)[C@H]5c5ccccc5)CC4)cccc3C2=O)C(=O)N1` (stereo partly drawn) [Cpd. No. 27, (3′R,4′R,5′R)-6″-chloro-N-((1r,4R)-4-((5-(2-(2,6-dioxopiperidin-3-yl)-1-oxoisoindolin-4-yl)pent-4-yn-1-yl)carbamoyl)cyclohexyl)-2″-oxo-4′-phenyldispiro[cyclohexane-1,2′-pyrrolidine-3′,3″-indoline]-5′-carboxamide], in the data set with RS4;11 cells, the IC50 was greater than 100 nM.

Consider `COc1cc(C(=O)N2CCC(C#Cc3cccc4c3CN(C3CCC(=O)NC3=O)C4=O)CC2)ccc1NC(=O)[C@@H]1NC2(CCCCC2)[C@@]2(C(=O)Nc3cc(Cl)ccc32)[C@H]1c1cccc(Cl)c1F` (stereo partly drawn) [Cpd. No. 28, (3′R,4′S,5′R)-6″-chloro-4′-(3-chloro-2-fluorophenyl)-N-(4-(4-((2-(2,6-dioxopiperidin-3-yl)-1-oxoisoindolin-4-yl)ethynyl)piperidine-1-carbonyl)-2-methoxyphenyl)-2″-oxodispiro[cyclohexane-1,2′-pyrrolidine-3′,3″-indoline]-5′-carboxamide], for which the IC50 with RS4;11 cells was greater than 100 nM.

Regarding `O=C1CCC(N2Cc3c(C#CC4CCN(C(=O)CC5CCN(C(=O)[C@@H]6NC7(CCCCC7)[C@@]7(C(=O)Nc8cc(Cl)ccc87)[C@H]6c6cccc(Cl)c6F)CC5)CC4)cccc3C2=O)C(=O)N1` (stereo partly drawn) [Cpd. No. 29, 3-(4-((1-(2-(1-((3′R,4′S,5′R)-6″-chloro-4′-(3-chloro-2-fluorophenyl)-2″-oxodispiro[cyclohexane-1,2′-pyrrolidine-3′,3″-indoline]-5′-carbonyl)piperidin-4-yl)acetyl)piperidin-4-yl)ethynyl)-1-oxoisoindolin-2-yl)piperidine-2,6-dione], the IC50 in the data set with RS4;11 cells was greater than 100 nM.

For `CC1(C#Cc2cccc3c2CN(C2CCC(=O)NC2=O)C3=O)CCN(C(=O)[C@H]2CC[C@H](NC(=O)[C@@H]3NC4(CCCCC4)[C@@]4(C(=O)Nc5cc(Cl)ccc54)[C@H]3c3cccc(Cl)c3F)CC2)CC1` (stereo partly drawn) [Cpd. No. 30, (3′R,4′S,5′R)-6″-chloro-4′-(3-chloro-2-fluorophenyl)-N-(4-(4-((2-(2,6-dioxopiperidin-3-yl)-1-oxoisoindolin-4-yl)ethynyl)-4-methylpiperidine-1-carbonyl)cyclohexyl)-2″-oxodispiro[cyclohexane-1,2′-pyrrolidine-3′,3″-indoline]-5′-carboxamide], in the data set with RS4;11 cells, the IC50 came to 1.2 nM.

For `CC1(C#Cc2cccc3c2CN(C2CCC(=O)NC2=O)C3=O)CCN(C(=O)C23CCC(NC(=O)[C@@H]4NC5(CCCCC5)[C@@]5(C(=O)Nc6cc(Cl)ccc65)[C@H]4c4cccc(Cl)c4F)(CC2)CC3)CC1` (stereo partly drawn) [Cpd. No. 31, (3′R,4′S,5′R)-6″-chloro-4′-(3-chloro-2-fluorophenyl)-N-(4-(4-((2-(2,6-dioxopiperidin-3-yl)-1-oxoisoindolin-4-yl)ethynyl)-4-methylpiperidine-1-carbonyl)bicyclo[2.2.2]octan-1-yl)-2″-oxodispiro[cyclohexane-1,2′-pyrrolidine-3′,3″-indoline]-5′-carboxamide], in the data set with RS4;11 cells, the IC50 was 2.9 nM.

With `O=C1CCC(N2Cc3c(C#CC4CN(C(=O)[C@H]5CC[C@H](NC(=O)[C@@H]6NC7(CCCCC7)[C@@]7(C(=O)Nc8cc(Cl)ccc87)[C@H]6c6cccc(Cl)c6F)CC5)C4)cccc3C2=O)C(=O)N1` (stereo partly drawn) [Cpd. No. 32, (3′R,4′S,5′R)-6″-chloro-4′-(3-chloro-2-fluorophenyl)-N-(4-(3-((2-(2,6-dioxopiperidin-3-yl)-1-oxoisoindolin-4-yl)ethynyl)azetidine-1-carbonyl)cyclohexyl)-2″-oxodispiro[cyclohexane-1,2′-pyrrolidine-3′,3″-indoline]-5′-carboxamide], in the data set with RS4;11 cells, the IC50 was 1.3 nM.

In the case of `O=C1CCC(N2Cc3c(C#CC4CN(C(=O)C56CCC(NC(=O)[C@@H]7NC8(CCCCC8)[C@@]8(C(=O)Nc9cc(Cl)ccc98)[C@H]7c7cccc(Cl)c7F)(CC5)CC6)C4)cccc3C2=O)C(=O)N1` (stereo partly drawn) [Cpd. No. 33, (3′R,4′S,5′R)-6″-chloro-4′-(3-chloro-2-fluorophenyl)-N-(4-(3-((2-(2,6-dioxopiperidin-3-yl)-1-oxoisoindolin-4-yl)ethynyl)azetidine-1-carbonyl)bicyclo[2.2.2]octan-1-yl)-2″-oxodispiro [cyclohexane-1,2′-pyrrolidine-3′,3″-indoline]-5′-carboxamide], the IC50 in the data set with RS4;11 cells was 1.2 nM.

Turning to `CC(C)[C@@H](CS(=O)(=O)C(C)C)N1C(=O)[C@@](C)(CC(=O)NCCCC#Cc2cccc3c2CN(C2CCC(=O)NC2=O)C3=O)C[C@H](c2cccc(Cl)c2)[C@H]1c1ccc(Cl)cc1` (stereo partly drawn) [Cpd. No. 37, 2-((3R,5R,6S)-5-(3-chlorophenyl)-6-(4-chlorophenyl)-1-((S)-1-(isopropylsulfonyl)-3-methylbutan-2-yl)-3-methyl-2-oxopiperidin-3-yl)-N-(5-(2-(2,6-dioxopiperidin-3-yl)-1-oxoisoindolin-4-yl)pent-4-yn-1-yl)acetamide], the IC50 in the data set on RS4;11 cells is greater than 100 nM.

Take `CC(C)(C)C[C@@H]1N[C@@H](C(=O)NC23CCC(C(=O)N4CCC(C#Cc5cccc6c5CN(C5CCC(=O)NC5=O)C6=O)CC4)(CC2)CC3)[C@H](c2cccc(Cl)c2F)[C@@]1(C#N)c1ccc(Cl)cc1F` (stereo partly shown) [Cpd. No. 38]: the IC50 with RS4;11 cells turned out to be 56 nM.
